By IC50 is commonly meant the concentration that inhibits the measured activity by half. The low end stands for inhibition by little substance, the high end for a need for much substance.

Each structure is given as a SMILES string. A value given as a limit tells only on which side of the number the result lay.

One assay deals with H2122 human lung cancer cells. Kind of assay: In vitro growth inhibition of human cancer cells under anchorage-independent conditions in soft agar (colony count). Particulars: NCI-H2122, 336 h, 50% reduction in colony number vs DMSO controls, two weeks incubation, MTT stain. The format is cell-based. As for the experimental part: In vitro growth inhibition of human cancer cells: Growth inhibition of human lung cancer cells by the compounds was measured under anchorage-independent conditions in soft agar. H2122 human lung cancer cells were seeded into 6-well plates (coated with a base layer made of 2 ml of 1% low-melting-point agarose) at 15,000 cells per well in 3 ml of 0.4% low-melting-point agarose containing various concentration of drug. Two weeks after incubation, cells were stained with 1 mg/ml MTT and colonies were counted under a microscope. […] Data are analyzed using Excel (Microsoft), and IC50 values are determined using Prism (Graphpad). The results of the in vitro H2122 growth inhibition activity of the representative compounds of the present invention are shown in the following Table: […]
The compound `Cc1nccn1-c1ccc(C2C(C#N)=C(N)Oc3c2c(-c2cc4ccccc4o2)nn3C)cc1` (stereo not drawn) [Compound 40] registered an IC50 of 1590 nM. Compound `Cc1nn(-c2ccccc2)c2c1C(c1ccc(-n3ccnc3)cc1)C(C#N)=C(N)O2` (stereo not drawn) [Compound 43] displayed an IC50 of 700 nM. As to `COc1ccc(-c2nn(C)c3c2C(c2ccc(-n4ccnc4)cc2)C(C#N)=C(N)O3)cc1` (stereo not drawn) [Compound 48], the 50% inhibitory concentration (IC50) amounted to 1320 nM.

`Cc1n[nH]c2c1C(c1ccc(C(F)(F)F)cc1)C(C#N)=C(N)O2` (stereo not drawn) [Compound 9] had an IC50 of 5050 nM. Turning to `Cc1n[nH]c2c1C(c1ccc(-n3ccnc3)cc1)C(C#N)=C(N)O2` (stereo not drawn) [Compound 10], the IC50 came out at 900 nM. In turn, `Cc1nn(-c2ccncc2)c2c1C(c1ccc(-n3ccnc3)cc1)C(C#N)=C(N)O2` (stereo not drawn) [Compound 46] came in with an IC50 of 2080 nM. `Cn1nc(-c2cc3ccccc3o2)c2c1OC(N)=C(C#N)C2c1ccc(-n2ccnc2)cc1` (stereo not drawn) [Compound 20] gave an IC50 of 490 nM. In turn, `Cc1nn(C)c2c1C(c1ccc(-n3cnc4ccccc43)cc1)C(C#N)=C(N)O2` (stereo not drawn) [Compound 27] came in with an IC50 of 840 nM.

With `COc1cccc(OC)c1C1C(C#N)=C(N)Oc2c1c(C)nn2C` (stereo not drawn) [Compound 11], the IC50 came to 2190 nM. On the same count and under the same terms, with `Cc1nn(C(C)(C)C)c2c1C(c1ccc(-n3ccnc3)cc1)C(C#N)=C(N)O2` (stereo not drawn) [Compound 42] the figure was 1120 nM; with `COc1cc(OC)c(C2C(C#N)=C(N)Oc3[nH]nc(C)c32)c(OC)c1` (stereo not drawn) [Compound 8], 3280 nM; with `COc1ccc(OC)c(C2C(C#N)=C(N)Oc3c2c(-c2cc4ccccc4o2)nn3C)c1` (stereo not drawn) [Compound 31], 6210 nM. Still for that read-out and setting: with `CCCc1n[nH]c2c1C(c1cc(OC)ccc1OC)C(C#N)=C(N)O2` (stereo not drawn) [Compound 2] the figure was 3560 nM; with `CCCc1n[nH]c2c1C(c1cc(Cl)cc(Cl)c1O)C(C#N)=C(N)O2` (stereo not drawn) [Compound 1], 2210 nM; with `Cc1nn(C)c2c1C(c1ccc(N3CCCC3)cc1)C(C#N)=C(N)O2` (stereo not drawn) [Compound 36], 8390 nM. With `CCCc1n[nH]c2c1C(c1ccc3ccccc3c1)C(C#N)=C(N)O2` (stereo not drawn) [Compound 3], half-maximal inhibition (IC50) required 3720 nM.

In the case of `Cc1nn(C)c2c1C(c1ccc(-n3cccn3)cc1)C(C#N)=C(N)O2` (stereo not drawn) [Compound 38], the IC50 turned out to be 5750 nM. The compound `Cc1cn(-c2ccc(C3C(C#N)=C(N)Oc4c3c(C)nn4C)cc2)cn1` (stereo not drawn) [Compound 39] showed an IC50 of 5110 nM. Turning to `COc1cc(C2C(C#N)=C(N)Oc3c2c(C)nn3C)ccc1C(F)(F)F` (stereo not drawn) [Compound 13], half-maximal inhibition (IC50) was put at 2990 nM. The compound `Cc1nn(C)c2c1C(c1ccc(-n3cncn3)cc1)C(C#N)=C(N)O2` (stereo not drawn) [Compound 33] showed an IC50 of 2490 nM. `Cc1nn(C)c2c1C(c1ccc(-n3cccc3)cc1)C(C#N)=C(N)O2` (stereo not drawn) [Compound 37]: half-maximal inhibition (IC50) was put at 6020 nM. Consider `COc1cc(C(F)(F)F)ccc1C1C(C#N)=C(N)Oc2c1c(C)nn2C` (stereo not drawn) [Compound 15], for which the IC50 stood at 1710 nM. `Cc1nn(C)c2c1C(c1cccc(-c3cncnc3)c1)C(C#N)=C(N)O2` (stereo not drawn) [Compound 14] gave an IC50 of 5050 nM.

The compound `COc1ccc(-c2nn(-c3ccccc3)c3c2C(c2ccc(-n4ccnc4)cc2)C(C#N)=C(N)O3)cc1` (stereo not drawn) [Compound 49] registered an IC50 of 3150 nM. Take `Cc1n[nH]c2c1C(c1ccc(OC(F)(F)F)cc1)C(C#N)=C(N)O2` (stereo not drawn) [Compound 7]: it took 3210 nM to reach half-maximal inhibition (IC50). Same read-out and setting: the same measure for `CC(C)c1nn(C)c2c1C(c1ccc(-n3ccnc3)cc1)C(C#N)=C(N)O2` (stereo not drawn) [Compound 25]: 1070 nM; for `Cc1nn(C)c2c1C(c1ccc(-c3ccccc3)cc1)C(C#N)=C(N)O2` (stereo not drawn) [Compound 12]: 4000 nM. Still for that read-out and setting: the same measure for `Cc1nn(C)c2c1C(c1ccc(N(C)C)cc1)C(C#N)=C(N)O2` (stereo not drawn) [Compound 34]: more than 10000 nM; for `Cc1nn(C)c2c1C(c1ccc(-c3ncccn3)cc1)C(C#N)=C(N)O2` (stereo not drawn) [Compound 24]: 6130 nM. `COc1ccc(-c2n[nH]c3c2C(c2ccc(-n4ccnc4)cc2)C(C#N)=C(N)O3)cc1` (stereo not drawn) [Compound 47] yielded an IC50 of 1320 nM. Take `CC(=O)Nc1ccc(C2C(C#N)=C(N)Oc3c2c(C)nn3C)cc1` (stereo not drawn) [Compound 35]: the 50% inhibitory concentration (IC50) stood at 2780 nM. Compound `COc1ccc(-n2nc(C)c3c2OC(N)=C(C#N)C3c2ccc(-n3ccnc3)cc2)cc1` (stereo not drawn) [Compound 45] returned an IC50 of 1620 nM. For the compound `Cn1nc(C(C)(C)C)c2c1OC(N)=C(C#N)C2c1ccc(-n2ccnc2)cc1` (stereo not drawn) [Compound 17], the half-maximal inhibitory concentration (IC50) is 1350 nM. Compound `Cn1nc(-c2n[nH]c3ccccc23)c2c1OC(N)=C(C#N)C2c1ccc(-n2ccnc2)cc1` (stereo not drawn) [Compound 41] yielded an IC50 of 1820 nM. In turn, `CCCc1nn(C)c2c1C(c1cc(OC)ccc1OC)C(C#N)=C(N)O2` (stereo not drawn) [Compound 5] showed an IC50 of 3860 nM. As to `Cn1nc(-c2ccccn2)c2c1OC(N)=C(C#N)C2c1ccc(-n2ccnc2)cc1` (stereo not drawn) [Compound 22], the IC50 was found to be 2040 nM. `Cc1nn(-c2ccc(F)cc2)c2c1C(c1ccc(-n3ccnc3)cc1)C(C#N)=C(N)O2` (stereo not drawn) [Compound 44] registered an IC50 of 980 nM. In turn, `Cc1nnc(-c2ccc(C3C(C#N)=C(N)Oc4c3c(C)nn4C)cc2)o1` (stereo not drawn) [Compound 32] yielded a half-inhibitory concentration (IC50) of 2910 nM. As to `Cn1nc(-c2cnccn2)c2c1OC(N)=C(C#N)C2c1ccc(-n2ccnc2)cc1` (stereo not drawn) [Compound 23], half-maximal inhibition (IC50) was put at 1080 nM. In turn, `Cn1nc(-c2cc3ccccc3o2)c2c1OC(N)=C(C#N)C2c1ccc(OC(F)(F)F)cc1` (stereo not drawn) [Compound 29] returned an IC50 of 3910 nM.

For the compound `Cn1nc(-c2cc3ccccc3o2)c2c1OC(N)=C(C#N)C2c1ccc(C(F)(F)F)cc1` (stereo not drawn) [Compound 28], half-maximal inhibition (IC50) required 3420 nM.

Regarding `Cn1nc(-c2cc3ccccc3o2)c2c1OC(N)=C(C#N)C2c1cc(Cl)cc(Cl)c1O` (stereo not drawn) [Compound 30], the IC50 came to 1710 nM. The same measure, in the same setting: the same measure for `Cn1nc(C2CCCC2)c2c1OC(N)=C(C#N)C2c1ccc(-n2ccnc2)cc1` (stereo not drawn) [Compound 18]: 1280 nM; for `Cc1nn(C)c2c1C(c1ccc(-n3ccnc3C)cc1)C(C#N)=C(N)O2` (stereo not drawn) [Compound 16]: 1020 nM; for `CCCc1nn(C)c2c1C(c1cc(Cl)cc(Cl)c1O)C(C#N)=C(N)O2` (stereo not drawn) [Compound 4]: 1590 nM. With `Cn1nc(Cc2ccccc2)c2c1OC(N)=C(C#N)C2c1ccc(-n2ccnc2)cc1` (stereo not drawn) [Compound 21], 890 nM corresponded to half-maximal inhibition (IC50). Compound `CC(C)c1nn(C)c2c1C(c1ccc(C(F)(F)F)cc1)C(C#N)=C(N)O2` (stereo not drawn) [Compound 26] registered an IC50 of 2960 nM.

Another assay concerns MiaPaCa2 pancreatic cell line.
Assay: not given
Particulars: inhibitory effects were modest; cited from earlier work.
Regarding `COC(=O)[C@H](CC(C)C)NC(=O)N1CCN(Cc2nc[nH]c2C)C(=O)[C@@H]1Cc1ccccc1` [GGTI-2417], the “inhibition of in vitro growth and survival” value was “inhibit the in vitro growth and survival”.

The values above are taken from patent US20180170942A1, “POLYCYCLIC DERIVATIVES TARGETING RAL GTPASES AND THEIR THERAPEUTICAL APPLICATIONS” (NANTBIO, INC., priority 2015, published 2018).
